Assay results: patent publication US7951814B2, “Quinazolinedione derivatives as TRPA1 modulators” (Glenmark Pharmaceuticals, S.A., priority 2008, dated 2011)
Read-outs that look alike come from different tables or passages of the source.

Experiments:
rats = test: FCA (Freund's Complete Adjuvant)-induced inflammatory mechanical hyperalgesia; assay type: in vivo, rat; conditions: for maximum efficacy against FCA-induced mechanical hyperalgesia: rats
Description: (§1) The illustrative examples of the present invention are screened for ‘in vivo’ TRPA1 based efficacy in various models of pain/hyperalgesia according to modified procedures described in (a) McNamara C R et al., PNASU (2007), 104, 13525-13530 (b) Eid S R et al., Molecular Pain, (2008), 4, 48 (c) Bennett G J and Xie Y K, Pain (1988), 33, 87-107. The screening of the compounds can also be carried out by some other methods and procedures known to persons skilled in the art.
FCA (Freund's Complete Adjuvant)-Induced Inflammatory Hyperalgesia
Freund's Complete Adjuvant (FCA), containing heat killed, dried Mycobaterium tuberculosis (1 mg/ml) emulsified in mineral oil and mannide monooleate, when injected (30 μl) into the plantar region of the paw of mice and rats induces an inflammatory hyperalgesia. Mechanical hyperalgesia (24 h after injection) was assessed by measuring hind paw withdrawal thresholds to an increasing pressure (g) stimulus, using the Randall-Sellitto analgesymeter (37215, Ugo Basile, Italy) fitted with a wedge-shaped probe.

[1] = molecular target: T1, Human TRPA1 expressing CHO cells (Homo sapiens, UniProt O75762); test: 45Calcium uptake assay: inhibition of AITC induced cellular uptake of radioactive calcium; assay type: cell-based; conditions: AITC 30 μM, human TRPA1 CHO cells; for inhibition at 1 µM: 1.0 μM test compound, read-out: Percentage inhibition at 1.0 μM; for inhibition at 10 µM: 10.0 μM test compound, read-out: Percentage inhibition at 10.0 μM; for IC50: read-out: IC50 value (range)
T1 construct: expressed in transfected cells; host or cells: CHO cells (under G-418 selection)
Summary of the method: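 CHO cells expressing human TRPA1 were preincubated 10 min with compound (0.5% DMSO final), then stimulated 3 min with 30 μM AITC plus 5 μCi/ml 45Ca2+. Lysate radioactivity gave % of maximal uninhibited response; IC50 by nonlinear regression.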

male SD rats [2] = test: Chronic Constriction Injury (CCI)-induced neuropathic pain (Bennett's model); assay type: in vivo, rat
Description: as §1
Chronic Constriction Injury (CCI)-Induced Neuropathic Pain (Bennett's Model)
Chronic constriction injury (CCI) of sciatic nerve in rats and mice induces inflammatory mechanical hyperalgesia in this Bennet's neuropathic pain model. Rats were anesthetized using ketamine/xylazine (40/5 mg/kg, i.p.) and the left sciatic nerve was exposed at mid thigh level through a small incision. Four loose ligatures of 4-0 chromic cat gut (Ethicon-Johnson & Johnson) at 1 mm space were placed around the sciatic nerve […] of common sciatic nerve. After 6-7 days, mechanical hyperalgesia was assessed by measuring hind paw withdrawal thresholds to an increasing pressure (g) stimulus, using the Randall-Sellitto analgesymeter (Ugo Basile, Italy), fitted with a wedge-shaped probe.

male SD rats [3] = test: Formalin-induced nocifensive behaviour; assay type: in vivo, rat; conditions: 10 mg/kg, p.o., given 1.5 h (compound 10) or 3 h (compound 37) prior to formalin (2.5%)
Description: as §1
Formalin-Induced Nocifensive Behaviour
Formalin also induces nocifensive behaviour (paw flinching and licking responses) in rats and mice. TRPA1-deficient mice show marked attenuation of characteristic paw flinching and licking responses as a result of intraplantar injection of formalin in a characteristic early and late phase manner. This model also serves as a selective TRPA1 based mechanistic model.
Compound 10 and compound 37 inhibited the formalin-induced nocifensive licking behaviour in both early & late phases in male SD rats.

[4] = Plasma levels after oral dosing in the rat pain models; assay type: in vivo; conditions: for concentration at 2 h / concentration at 4 h: Sprague-Dawley, AITC model; for concentration at 2 h: p.o.
male SD rats [5] = test: AITC-induced nocifensive behaviour in rats; assay type: in vivo, rat; conditions: 10 mg/kg, p.o., AITC 5%
Description: as §1
AITC-Induced Nocifensive Behaviour in Rats
Allyl isothiocyanate (AITC), a selective activator of TRPA1 receptor channel, induces nocifensive behavior (paw flinching and licking responses) in rats. The number of flinches and licking responses were counted for 45 min following the injection of 5% AITC into the plantar region of the paw. AITC being an activator of TRPA1 receptor, this model serves as a mechanistic validation for screened molecules as selective antagonists at TRPA1 channel receptor.

[6] = rat, plasma, oral, 10 mg/kg, male SD rats

T1 sequence (O75762 whole entry): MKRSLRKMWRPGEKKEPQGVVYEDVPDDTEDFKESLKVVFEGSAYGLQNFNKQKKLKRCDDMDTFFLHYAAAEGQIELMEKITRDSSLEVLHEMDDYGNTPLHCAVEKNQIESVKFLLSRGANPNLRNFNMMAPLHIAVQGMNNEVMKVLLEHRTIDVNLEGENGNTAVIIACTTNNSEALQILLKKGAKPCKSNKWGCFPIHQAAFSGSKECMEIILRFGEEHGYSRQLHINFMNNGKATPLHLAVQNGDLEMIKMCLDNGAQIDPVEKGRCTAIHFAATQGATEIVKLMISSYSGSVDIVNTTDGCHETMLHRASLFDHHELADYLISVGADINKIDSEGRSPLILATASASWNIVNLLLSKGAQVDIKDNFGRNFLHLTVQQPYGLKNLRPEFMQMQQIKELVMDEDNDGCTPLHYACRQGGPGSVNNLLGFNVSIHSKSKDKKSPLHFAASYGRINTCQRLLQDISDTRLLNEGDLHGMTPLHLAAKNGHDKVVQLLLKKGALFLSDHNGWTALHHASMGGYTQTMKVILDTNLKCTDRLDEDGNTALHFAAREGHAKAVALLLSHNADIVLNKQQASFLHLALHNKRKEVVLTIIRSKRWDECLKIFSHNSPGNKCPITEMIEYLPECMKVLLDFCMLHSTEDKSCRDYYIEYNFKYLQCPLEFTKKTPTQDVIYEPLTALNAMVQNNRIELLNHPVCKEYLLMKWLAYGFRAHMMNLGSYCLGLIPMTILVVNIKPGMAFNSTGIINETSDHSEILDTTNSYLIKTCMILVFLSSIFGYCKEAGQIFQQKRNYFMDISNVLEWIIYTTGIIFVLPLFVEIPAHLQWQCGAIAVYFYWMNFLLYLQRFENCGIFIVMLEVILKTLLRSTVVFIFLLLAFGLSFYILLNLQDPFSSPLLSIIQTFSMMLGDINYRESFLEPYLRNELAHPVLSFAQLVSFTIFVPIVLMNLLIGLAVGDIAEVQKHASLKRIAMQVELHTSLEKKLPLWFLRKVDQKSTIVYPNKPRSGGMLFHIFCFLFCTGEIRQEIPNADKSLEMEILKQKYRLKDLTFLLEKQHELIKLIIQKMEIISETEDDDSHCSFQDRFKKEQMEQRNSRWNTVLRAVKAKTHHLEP

| inhibition at 1 µM [1] | inhibition at 10 µM [1] | IC50 [1] | plasma levels ([4]; 10 mg/kg, CCI model, male SD rats) | concentration at 2 h ([4]; rat, plasma, oral, 3 mg/kg, male SD rats, read-out: Plasma levels at 2 h) | concentration at 2 h ([4]; rat, plasma, oral, 10 mg/kg, male SD rats, read-out: Plasma levels at 2 h) | concentration at 2 h ([4]; rat, plasma, oral, 3, 5 and 10 mg/kg, male SD rats, read-out: plasma levels at 2 h post-dose (range over doses)) | concentration at 0.5 h ([4]; rat, plasma, oral, 10 mg/kg, FCA model, rats) | concentration at 4 h [4, 6] | concentration at 1 h ([4]; rat, plasma, oral, 30 mg/kg (p.o.), FCA model, rats) | SMILES | maximum efficacy against FCA-induced mechanical hyperalgesia (rats; 10 mg/kg, p.o.) | ED50 (rats; Rattus norvegicus, po, doses 1, 3, 6 and 10 mg/kg) | maximum efficacy, reversal of CCI-induced hyperalgesia (male SD rats [2]; 10 mg/kg, acute and chronic administration) | ED50 (male SD rats [2]; Rattus norvegicus, read-out: ED50, CCI-induced neuropathic hyperalgesia) | inhibition of the early phase nocifensive behaviour (male SD rats [3]) | inhibition of the late phase nocifensive behaviour (male SD rats [3]) | inhibition of AITC induced flinching (male SD rats [5]) | maximum efficacy against FCA-induced mechanical hyperalgesia (rats; 30 mg/kg (p.o.)) |
| --- | --- | --- | --- | --- | --- | --- | --- | --- | --- | --- | --- | --- | --- | --- | --- | --- | --- | --- |
| 97.5% | 99.4% | < 50 nM |  |  |  |  |  | 6200 ng/mL |  | Cn1c(=O)c2c(CC(=O)Nc3nc(-c4ccc(C(F)(F)F)c(F)c4)cs3)cccc2n(C)c1=O [Example 37, N1-[4-(3-Fluoro-4-trifluoromethylphenyl)-1,3-thiazol-2-yl]-2-(1,3-dimethyl-2,4-dioxo-1,2,3,4-tetrahydro-5-quinazolinyl)acetamide] |  |  |  |  | 18% | 59% | 39% |  |
| 59% | 94.2% | > 100 nM |  |  |  |  |  |  |  | Cn1c(=O)c2c(CC(=O)Nc3nc(-c4c(F)ccc(F)c4F)cs3)cccc2n(C)c1=O [Example 62] |  |  |  |  |  |  |  |  |
| 33% | 28.5% |  |  |  |  |  |  |  |  | Cn1c(=O)c2c(CC(=O)Nc3nc4ccc(F)cc4s3)cccc2n(C)c1=O [Example 76, N1-[6-Fluorobenzo[d][1,3]thiazol-2-yl)-2-(1,3-dimethyl-2,4-dioxo-1,2,3,4-tetrahydro-5-quinazolinyl)acetamide] |  |  |  |  |  |  |  |  |

The remaining lines, values behind:

| SMILES | inhibition at 1 µM [1] | inhibition at 10 µM [1] | IC50 [1] | plasma levels ([4]; 10 mg/kg, CCI model, male SD rats) | concentration at 2 h ([4]; rat, plasma, oral, 3 mg/kg, male SD rats, read-out: Plasma levels at 2 h) | concentration at 2 h ([4]; rat, plasma, oral, 10 mg/kg, male SD rats, read-out: Plasma levels at 2 h) | concentration at 2 h ([4]; rat, plasma, oral, 3, 5 and 10 mg/kg, male SD rats, read-out: plasma levels at 2 h post-dose (range over doses)) | concentration at 0.5 h ([4]; rat, plasma, oral, 10 mg/kg, FCA model, rats) | concentration at 4 h [4, 6] | concentration at 1 h ([4]; rat, plasma, oral, 30 mg/kg (p.o.), FCA model, rats) | maximum efficacy against FCA-induced mechanical hyperalgesia (rats; 10 mg/kg, p.o.) | ED50 (rats; Rattus norvegicus, po, doses 1, 3, 6 and 10 mg/kg) | maximum efficacy, reversal of CCI-induced hyperalgesia (male SD rats [2]; 10 mg/kg, acute and chronic administration) | ED50 (male SD rats [2]; Rattus norvegicus, read-out: ED50, CCI-induced neuropathic hyperalgesia) | inhibition of the early phase nocifensive behaviour (male SD rats [3]) | inhibition of the late phase nocifensive behaviour (male SD rats [3]) | inhibition of AITC induced flinching (male SD rats [5]) | maximum efficacy against FCA-induced mechanical hyperalgesia (rats; 30 mg/kg (p.o.)) |
| --- | --- | --- | --- | --- | --- | --- | --- | --- | --- | --- | --- | --- | --- | --- | --- | --- | --- | --- |
| Cn1c(=O)c2c(CC(=O)Nc3nc(-c4ccc(Cl)cc4)cs3)cccc2n(C)c1=O [Example 10] | 99.7% | 99.9% | 50.1 to 100 nM | 5100 ng/mL | 2080 ng/mL | 7380 ng/mL | 2080 to 7380 ng/mL | 3500 ng/mL |  |  | 81% | 2.7 mg/kg | 75% | 3.5 mg/kg | 58% | 58% |  |  |
| Cn1c(=O)c2c(CC(=O)Nc3nc(-c4cccc(C(F)(F)F)c4)cs3)cccc2n(C)c1=O [Example 15, N1-[4-(3-Trifluoromethylphenyl)-1,3-thiazol-2yl]-2-(1,3-dimethyl-2,4-dioxo-1,2,3,4-tetrahydro-5-quinazolinyl)acetamide] | 98% | 100% | < 50 nM |  |  |  |  |  | 9800 ng/mL | 3430 ng/mL |  |  |  |  |  |  | 59% | ~70% |
